In patent US9604933B2, “Pyrazolochalcones as potential anticancer agents” (COUNCIL OF SCIENTIFIC AND INDUSTRIAL RESEARCH, priority 2013, dated 2017):

Columns and labels:
HT29 = test: NCI SRB cytotoxicity, colon HT29; assay type: cell-based; conditions: Homo sapiens, HT-29, 48 h exposure
Procedure: (§1) The pyrazolochalcones (7e, 8e, 10e, 11e, 12e, 13e and 8f) have been tested against fifty nine human tumor cell lines derived from nine cancer types (leukemia, non-small cell lung cancer, colon cancer, CNS cancer, melanoma, ovarian cancer, renal cancer, prostate cancer and breast cancer) as per the NCI protocol. For each compound, dose response curves for individual cell lines have been measured at a minimum of five concentrations at 10 fold dilutions. A protocol of 48 h continuous drug exposure has been used, and a sulforhodamine B (SRB) protein assay has been used to estimate cell viability or growth. The concentration for 50% cell growth inhibition (GI50), 50% cell death (LC50, 50% growth) and total cell growth inhibition (TGI, 0% growth) values were tabulated (Table-1). DMSO was used as control to calculate the values of GI50, LC50 and TGI. The compounds 7e, 8e, 10e, 11e, 12e, 13e and 8f has been evaluated for their in vitro cytotoxicity in […] cell lines from nine human cancer types of leukemia (K-562, SR), non-small cell lung (Hop-62, NCI-H226, NCI-H522), colon (HCT-116, HCT-15, HCC-2998), CNS (SF-539), melanoma (SK-MEL-5, UACC-62, M14), ovarian (IGROV1), renal (A498), prostate (PC3) and breast (BT-549, MDA-MB-435, HS578T) origin. The results are expressed as percent of cell growth determined relative to that of untreated control cells (Table 2).

HL-60(TB) = test: NCI SRB cytotoxicity, leukemia HL-60(TB); assay type: cell-based; conditions: Homo sapiens, 48 h exposure
Procedure: as §1

LOX IMVI = test: NCI SRB cytotoxicity, melanoma LOX IMVI; assay type: cell-based; conditions: Homo sapiens, 48 h exposure
Procedure: as §1

MALME-3M = test: NCI SRB cytotoxicity, melanoma MALME-3M; assay type: cell-based; conditions: Homo sapiens, 48 h exposure
Procedure: as §1

ACHN = test: NCI SRB cytotoxicity, renal ACHN; assay type: cell-based; conditions: Homo sapiens, 48 h exposure
Procedure: as §1

786-0 = test: NCI SRB cytotoxicity, renal 786-0; assay type: cell-based; conditions: Homo sapiens, 48 h exposure
Procedure: as §1

Non-small cell lung = test: NCI SRB cytotoxicity, non-small cell lung panel average; assay type: cell-based, human; conditions: average of cell lines
Procedure: as §1
(§2) Each cancer type represents the average of six to eight different cancer cell lines.

NCI/ADR-RES = test: NCI SRB cytotoxicity, ovarian NCI/ADR-RES; assay type: cell-based; conditions: Homo sapiens, 48 h exposure
Procedure: as §1

COLO-205 = test: NCI SRB cytotoxicity, colon COLO-205; assay type: cell-based; conditions: Homo sapiens, 48 h exposure
Procedure: as §1

Melanoma = test: NCI SRB cytotoxicity, melanoma panel average; assay type: cell-based, human; conditions: average of cell lines
Procedure: as §1, §2

SK-MEL-5 = test: NCI SRB cytotoxicity, melanoma SK-MEL-5; assay type: cell-based; conditions: Homo sapiens, 48 h exposure
Procedure: as §1

NCI-H522 = test: NCI SRB cytotoxicity, non-small cell lung NCI-H522; assay type: cell-based; conditions: Homo sapiens, 48 h exposure
Procedure: as §1

PC-3 = test: NCI SRB cytotoxicity, prostate PC-3; assay type: cell-based; conditions: Homo sapiens, 48 h exposure
Procedure: as §1

K-562 = test: NCI SRB cytotoxicity, leukemia K-562; assay type: cell-based; conditions: Homo sapiens, K562, 48 h exposure
Procedure: as §1

M14 = test: NCI SRB cytotoxicity, melanoma M14; assay type: cell-based; conditions: Homo sapiens, 48 h exposure
Procedure: as §1

MOLT-4 = test: NCI SRB cytotoxicity, leukemia MOLT-4; assay type: cell-based; conditions: Homo sapiens, 48 h exposure
Procedure: as §1

SNB-75 = test: NCI SRB cytotoxicity, CNS SNB-75; assay type: cell-based; conditions: Homo sapiens, 48 h exposure
Procedure: as §1

CCRF-CEM = test: NCI SRB cytotoxicity, leukemia CCRF-CEM; assay type: cell-based; conditions: Homo sapiens, 48 h exposure
Procedure: as §1

MDA-MB-435 = test: NCI SRB cytotoxicity, melanoma MDA-MB-435; assay type: cell-based; conditions: Homo sapiens, Melanoma panel MDA-MB-435, 48 h exposure
Procedure: as §1

Breast = test: NCI SRB cytotoxicity, breast panel average; assay type: cell-based, human; conditions: average of cell lines
Procedure: as §1, §2

OVCAR-8 = test: NCI SRB cytotoxicity, ovarian OVCAR-8; assay type: cell-based; conditions: Homo sapiens, 48 h exposure
Procedure: as §1

SK-MEL-28 = test: NCI SRB cytotoxicity, melanoma SK-MEL-28; assay type: cell-based; conditions: Homo sapiens, 48 h exposure
Procedure: as §1

NCIH322M = test: NCI SRB cytotoxicity, non-small cell lung NCIH322M; assay type: cell-based; conditions: Homo sapiens, NCI-H322M, 48 h exposure
Procedure: as §1

Renal = test: NCI SRB cytotoxicity, renal panel average; assay type: cell-based, human; conditions: average of cell lines
Procedure: as §1, §2

Colon = test: NCI SRB cytotoxicity, colon panel average; assay type: cell-based, human; conditions: average of cell lines
Procedure: as §1, §2

BT-549 = test: NCI SRB cytotoxicity, breast BT-549; assay type: cell-based; conditions: Homo sapiens, 48 h exposure
Procedure: as §1

Prostate = test: NCI SRB cytotoxicity, prostate panel average; assay type: cell-based, human; conditions: average of cell lines
Procedure: as §1, §2

SF-539 = test: NCI SRB cytotoxicity, CNS SF-539; assay type: cell-based; conditions: Homo sapiens, 48 h exposure
Procedure: as §1

T-47D = test: NCI SRB cytotoxicity, breast T-47D; assay type: cell-based; conditions: Homo sapiens, T47D, 48 h exposure
Procedure: as §1

IGROV1 = test: NCI SRB cytotoxicity, ovarian IGROV1; assay type: cell-based; conditions: Homo sapiens, IGROV-1, 48 h exposure
Procedure: as §1

MCF7 = test: NCI SRB cytotoxicity, breast MCF7; assay type: cell-based; conditions: Homo sapiens, 48 h exposure
Procedure: as §1

UO-31 = test: NCI SRB cytotoxicity, renal UO-31; assay type: cell-based; conditions: Homo sapiens, 48 h exposure
Procedure: as §1

SNB-19 = test: NCI SRB cytotoxicity, CNS SNB-19; assay type: cell-based; conditions: Homo sapiens, 48 h exposure
Procedure: as §1

OVCAR-3 = test: NCI SRB cytotoxicity, ovarian OVCAR-3; assay type: cell-based; conditions: Homo sapiens, 48 h exposure
Procedure: as §1

SK-MEL-2 = test: NCI SRB cytotoxicity, melanoma SK-MEL-2; assay type: cell-based; conditions: Homo sapiens, 48 h exposure
Procedure: as §1

RXF 393 = test: NCI SRB cytotoxicity, renal RXF 393; assay type: cell-based; conditions: Homo sapiens, 48 h exposure
Procedure: as §1

SK-OV-3 = test: NCI SRB cytotoxicity, ovarian SK-OV-3; assay type: cell-based; conditions: Homo sapiens, 48 h exposure
Procedure: as §1

HCT-116 = test: NCI SRB cytotoxicity, colon HCT-116; assay type: cell-based; conditions: Homo sapiens, 48 h exposure
Procedure: as §1

[1] = Homo sapiens, read-out: Log10 GI50 (concentration in mol/L causing 50% growth inhibition) (converted)
[2] = Homo sapiens, read-out: Log10 LC50 (concentration in mol/L causing 50% cell death) (converted)

`COc1ccc(C(=O)/C=C/c2cc(-c3cc(OC)c(OC)c(OC)c3)n[nH]2)cc1` [7e, (E)-1-(4-methoxyphenyl)-3-(3-(3,4,5-trimethoxyphenyl)-1H-pyrazol-5-yl)prop-2-en-1-one] was tested. Which GI50 (HT29) did it give?
The GI50 was 1970 nM.

And the GI50 (HL-60(TB))?
Its GI50 is 2160 nM.

What about the GI50 (LOX IMVI) of the same compound?
Its GI50 is 1580 nM.

What about the GI50 (MALME-3M) of the same compound?
The GI50 was 1860 nM.

What about the GI50 (ACHN) of the same compound?
The GI50 was 1960 nM.

And the GI50 (786-0)?
The GI50 was 1950 nM.

And the GI50 (Non-small cell lung; [1])?
Its GI50 is 1820 nM.

What about the LC50 (Non-small cell lung; [2]) of the same compound?
Its LC50 is 21900 nM.

And the “Log10 TGI (concentration in mol/L causing total growth inhibition (0% growth))” value (Non-small cell lung)?
The value was −5.36 mol/L.

And the GI50 (NCI/ADR-RES)?
Its GI50 is 2700 nM.

And the GI50 (COLO-205)?
The GI50 was 1730 nM.

And the GI50 (Melanoma; [1])?
Its GI50 is 2090 nM.

And the LC50 (Melanoma; [2])?
The LC50 was 36300 nM.

And the “Log10 TGI (concentration in mol/L causing total growth inhibition)” value (Melanoma)?
Its value is −5.32 mol/L.

And the GI50 (SK-MEL-5)?
The GI50 was 1720 nM.

What about the GI50 (NCI-H522) of the same compound?
The GI50 was 1470 nM.

And the GI50 (PC-3)?
Its GI50 is 1510 nM.

And the GI50 (K-562)?
Its GI50 is 2320 nM.

And the GI50 (M14)?
Its GI50 is 2200 nM.

What about the GI50 (MOLT-4) of the same compound?
The GI50 was 2670 nM.

And the GI50 (SNB-75)?
The GI50 was 1490 nM.

What about the GI50 (CCRF-CEM) of the same compound?
Its GI50 is 1420 nM.

And the GI50 (MDA-MB-435)?
Its GI50 is 2200 nM.

What about the GI50 (Breast; [1]) of the same compound?
The GI50 was 1910 nM.

What about the CC50 (Breast; [2]) of the same compound?
The CC50 was 33900 nM.

And the “Log10 TGI (concentration in mol/L causing total growth inhibition (0% growth))” value (Breast)?
Its value is −5.08 mol/L.

And the GI50 (OVCAR-8)?
The GI50 was 2430 nM.

And the GI50 (SK-MEL-28)?
Its GI50 is 2120 nM.

And the GI50 (NCIH322M)?
Its GI50 is 1920 nM.

What about the GI50 (Renal; [1]) of the same compound?
Its GI50 is 1820 nM.

And the CC50 (Renal; [2])?
Its CC50 is 18200 nM.

And the “Log10 TGI (concentration in mol/L causing total growth inhibition (0% growth))” value (Renal)?
The value was −5.43 mol/L.

What about the GI50 (Colon; [1]) of the same compound?
The GI50 was 1740 nM.

And the LC50 (Colon; [2])?
Its LC50 is 19100 nM.

And the “Log10 TGI (concentration in mol/L causing total growth inhibition)” value (Colon)?
Its value is −5.41 mol/L.

What about the GI50 (BT-549) of the same compound?
The GI50 was 1860 nM.

And the GI50 (Prostate; [1])?
The GI50 was 1480 nM.

What about the “Log10 TGI (concentration in mol/L causing total growth inhibition (0% growth))” value (Prostate) of the same compound?
The value was −5.55 mol/L.

And the GI50 (SF-539)?
Its GI50 is 1620 nM.

What about the GI50 (T-47D) of the same compound?
The GI50 was 2310 nM.

And the GI50 (IGROV1)?
The GI50 was 2210 nM.

What about the GI50 (MCF7) of the same compound?
The GI50 was 1150 nM.

What about the GI50 (UO-31) of the same compound?
The GI50 was 1450 nM.

What about the GI50 (SNB-19) of the same compound?
Its GI50 is 1510 nM.

What about the GI50 (OVCAR-3) of the same compound?
The GI50 was 1740 nM.

And the GI50 (SK-MEL-2)?
Its GI50 is 4140 nM.

What about the GI50 (RXF 393) of the same compound?
The GI50 was 1270 nM.

What about the GI50 (SK-OV-3) of the same compound?
Its GI50 is 3990 nM.

What about the GI50 (HCT-116) of the same compound?
Its GI50 is 1730 nM.
